Bounds are passed on as bounds.

The first test relates to TGF-β induced PAI-1 production. Kind of test: TGF-β induced PAI-1 production in HepG2 cells (Human Serpin E1/PAI-1 DuoSet). The class given is cell-based. To be noted: Compound Concentration: 0.1 μM.
Experimental: HepG2 cells were seeded on a 96-well culture plate by 2×10^4 cells/well, and were incubated for 24 hours in the MEM medium containing 1% NEAA (Non-Essential Amino Acids), 1 mM pyruvate, and 10% FBS. Then, the medium was changed to a MEM medium containing 1% NEAA, 1 mM pyruvate and 1% FBS, and the cells were further incubated for 24 hours. Subsequently, after the medium was changed to a MEM medium containing 1% NEAA, 1 mM pyruvate and 1% FBS, and then the cells were treated with the test substances (final concentration: 1 μM or 0.1 μM) for one hour, TGF-β1 (final concentration: 1 ng/mL) was added and the cells were further incubated for 24 hours. As controls, a culture solution added TGF-β1 only, and a culture solution cultured without neither the test substances nor TGF-β1 were prepared. After the incubation, the PAI-1 amount was measured using Human Serpin E1/PAI-1 DuoSet (R&D Systems). The PAI-1 amount when treated with TGF-β1 only being “100%”, and the PAI-1 amount when treated without neither the test substances nor TGF-β1 being “0%”, the PAI-1 inhibition ratios of each test substance were calculated.
In the case of `O=C(Nc1cc(C(F)(F)F)cc(C(F)(F)F)c1)c1cc(F)ccc1O` [(5)], the “Inhibition Ratio (PAI-1)” value stood at 71.2%. Still for that read-out and setting: to `O=C(Nc1cc(C(F)(F)F)cc(C(F)(F)F)c1)c1cc(Br)ccc1O` [(6)] belongs 82.3%; to `O=C(Nc1cc(C(F)(F)F)cc(C(F)(F)F)c1)c1cc([N+](=O)[O-])ccc1O` [(8)], 52.8%. The same measure, in the same setting: to `N#Cc1ccc(O)c(C(=O)Nc2cc(C(F)(F)F)cc(C(F)(F)F)c2)c1` [(9)] belongs 59.4%; to `O=C(Nc1cc(C(F)(F)F)cc(C(F)(F)F)c1)c1cc(C(F)(F)F)ccc1O` [(19)], 62.2%; to `O=C(Nc1cc(C(F)(F)F)cc(C(F)(F)F)c1)c1ccc(Cl)cc1O` [(33)], 63.3%.

Staying with this test, now noted: Compound Concentration: 1 μM.
As for `O=C(Nc1cc(C(F)(F)F)cc(C(F)(F)F)c1)c1ccccc1O` [(4)], the “Inhibition Ratio (PAI-1)” value was greater than 90%.

Take `O=C(Nc1cc(C(F)(F)F)cc(C(F)(F)F)c1)c1cc(F)ccc1O` [(5)]: the “Inhibition Ratio (PAI-1)” value was greater than 90%. The same measure, in the same setting: the figure for `O=C(Nc1cc(C(F)(F)F)cc(C(F)(F)F)c1)c1cc(Br)ccc1O` [(6)] is greater than 90%; for `O=C(Nc1cc(C(F)(F)F)cc(C(F)(F)F)c1)c1cc(I)ccc1O` [(7)] it is greater than 90%. Same read-out and setting: to `O=C(Nc1cc(C(F)(F)F)cc(C(F)(F)F)c1)c1cc([N+](=O)[O-])ccc1O` [(8)] belongs 85.9%; to `N#Cc1ccc(O)c(C(=O)Nc2cc(C(F)(F)F)cc(C(F)(F)F)c2)c1` [(9)], greater than 90%. The same measure, in the same setting: the figure for `Cc1ccc(O)c(C(=O)Nc2cc(C(F)(F)F)cc(C(F)(F)F)c2)c1` [(10)] is 89.2%. Consider `CC(C)(C)c1ccc(O)c(C(=O)Nc2cc(C(F)(F)F)cc(C(F)(F)F)c2)c1` [(11)], for which the “Inhibition Ratio (PAI-1)” value is 70.5%. On the same count and under the same terms, the figure for `CC(C)(/C=C/c1ccccc1)c1ccc(O)c(C(=O)Nc2cc(C(F)(F)F)cc(C(F)(F)F)c2)c1` [(14)] is 86.6%; for `CC(C)(C#Cc1ccccc1)c1ccc(O)c(C(=O)Nc2cc(C(F)(F)F)cc(C(F)(F)F)c2)c1` [(15)] it is greater than 90%.

For the compound `O=C(Nc1cc(C(F)(F)F)cc(C(F)(F)F)c1)c1cc(-c2ccccc2)ccc1O` [(17)], the “Inhibition Ratio (PAI-1)” value turned out to be 82.9%. For the compound `CC(C)(CCc1ccccc1)c1ccc(O)c(C(=O)Nc2cc(C(F)(F)F)cc(C(F)(F)F)c2)c1` [(18)], the “Inhibition Ratio (PAI-1)” value worked out at 55.4%. The same measure, in the same setting: the figure for `O=C(Nc1cc(C(F)(F)F)cc(C(F)(F)F)c1)c1cc(C(F)(F)F)ccc1O` [(19)] is greater than 90%; for `O=C(Nc1cc(C(F)(F)F)cc(C(F)(F)F)c1)c1cc(C(F)(F)C(F)(F)F)ccc1O` [(20)] it is greater than 90%; for `CC(=O)c1ccc(O)c(C(=O)Nc2cc(C(F)(F)F)cc(C(F)(F)F)c2)c1` [(26)] it is 46.8%. The same measure, in the same setting: to `COC(=O)c1ccc(O)c(C(=O)Nc2cc(C(F)(F)F)cc(C(F)(F)F)c2)c1` [(28)] belongs greater than 90%; to `CC(=O)Oc1ccccc1C(=O)Nc1cc(C(F)(F)F)cc(C(F)(F)F)c1` [(31)], 75.2%; to `CC(=O)Oc1ccc(Cl)cc1C(=O)Nc1cc(C(F)(F)F)cc(C(F)(F)F)c1` [(32)], greater than 90%. Same read-out and setting: to `O=C(Nc1cc(C(F)(F)F)cc(C(F)(F)F)c1)c1ccc(Cl)cc1O` [(33)] belongs greater than 90%; to `O=C(Nc1cccc(C(F)(F)F)c1F)c1cc(Cl)ccc1O` [(35)], greater than 90%.

For `O=C(Nc1ccc(F)c(C(F)(F)F)c1)c1cc(Cl)ccc1O` [(36)], the “Inhibition Ratio (PAI-1)” value was greater than 90%. The same measure, in the same setting: to `O=C(Nc1cc(F)cc(C(F)(F)F)c1)c1cc(Cl)ccc1O` [(37)] belongs greater than 90%; to `N#Cc1ccc(NC(=O)c2cc(Br)ccc2O)cc1C(F)(F)F` [(39)], greater than 90%; to `Cc1c(NC(=O)c2cc(Cl)ccc2O)cccc1C(F)(F)F` [(40)], greater than 90%.

Turning to `O=C(Nc1ccc(C(F)(F)F)cc1)c1cc(Cl)ccc1O` [(43)], the “Inhibition Ratio (PAI-1)” value is greater than 90%. On the same count and under the same terms, to `O=C(Nc1cccc(Cl)c1)c1cc(Br)ccc1O` [(44)] belongs 82.4%; to `O=C(Nc1ccc(Cl)cc1)c1cc(Br)ccc1O` [(45)], greater than 90%. The same measure, in the same setting: to `O=C(Nc1cc(F)cc(F)c1)c1cc(Br)ccc1O` [(46)] belongs greater than 90%. The same measure, in the same setting: the figure for `O=C(Nc1cc(Cl)cc(Cl)c1)c1ccccc1O` [(47)] is 35.6%; for `O=C(Nc1cc(Cl)cc(Cl)c1)c1ccc(Cl)cc1O` [(48)] it is greater than 90%; for `O=C(Nc1cc(Cl)c(Cl)c(Cl)c1)c1cc(Br)ccc1O` [(49)] it is 70.7%. On to `Cc1cc(C)cc(NC(=O)c2cc(Br)ccc2O)c1` [(50)], for which the “Inhibition Ratio (PAI-1)” value is listed as 66.0%.

Take `CC(C)(C)c1cc(NC(=O)c2cc(Cl)ccc2O)cc(C(C)(C)C)c1` [(51)]: the “Inhibition Ratio (PAI-1)” value was 42.8%. With `O=C(Nc1cccc(-c2ccccc2)c1)c1cc(Cl)ccc1O` [(52)], the “Inhibition Ratio (PAI-1)” value was found to be 81.0%.

As for `COc1cc(NC(=O)c2cc(Cl)ccc2O)cc(-c2ccccc2)c1` [(53)], the “Inhibition Ratio (PAI-1)” value worked out at 52.4%. The same measure, in the same setting: to `CC(=O)Oc1ccccc1C(=O)Nc1cc(Cl)cc(Cl)c1` [(54)] belongs 78.9%. Still for that read-out and setting: to `O=C(Nc1cc(C(F)(F)F)cc(C(F)(F)F)c1)c1c(O)cccc1O` [(55)] belongs greater than 90%; to `Cc1ccc(C(=O)Nc2cc(C(F)(F)F)cc(C(F)(F)F)c2)c(O)c1` [(56)], greater than 90%. The same measure, in the same setting: the figure for `O=C(Nc1cc(C(F)(F)F)cc(C(F)(F)F)c1)c1cc(Cl)cc(Cl)c1O` [(57)] is greater than 90%; for `O=C(Nc1cc(C(F)(F)F)cc(C(F)(F)F)c1)c1c(O)c(Cl)cc(Cl)c1Cl` [(59)] it is greater than 90%; for `O=C(Nc1cc(C(F)(F)F)cc(C(F)(F)F)c1)c1c(O)cccc1F` [(60)] it is 38.1%. Turning to `O=C(Nc1cc(C(F)(F)F)cc(C(F)(F)F)c1)c1cccc(Cl)c1O` [(61)], the “Inhibition Ratio (PAI-1)” value is greater than 90%. Same read-out and setting: the figure for `O=C(Nc1cc(OCC(F)(F)F)cc(C(F)(F)F)c1)c1cc(Cl)ccc1O` [(63)] is 79.5%; for `CCCCCCOc1ccc(S(C)(=O)=O)cc1NC(=O)c1cc(Cl)ccc1O` [(64)] it is 73.6%; for `Cc1ccc(C(=O)C(C)(C)C)cc1NC(=O)c1cc(Cl)ccc1O` [(65)] it is 85.5%. `Cc1ccc(-c2ccccc2)cc1NC(=O)c1cc(Cl)ccc1O` [(66)]: the “Inhibition Ratio (PAI-1)” value was 84.1%. As to `O=C(Nc1cccc(C(F)(F)F)c1)c1cc(Cl)ccc1O` [(67)], the “Inhibition Ratio (PAI-1)” value is recorded as greater than 90%. On the same count and under the same terms, to `O=C(Nc1cccc(OC(F)(F)F)c1)c1cc(Cl)ccc1O` [(68)] belongs greater than 90%.

For the compound `O=C(Nc1ccc(OC(F)(F)F)cc1)c1cc(Cl)ccc1O` [(70)], the “Inhibition Ratio (PAI-1)” value is reported as greater than 90%.

For the compound `O=C(Nc1ccc(Cl)cc1Cl)c1cc(Cl)ccc1O` [(71)], the “Inhibition Ratio (PAI-1)” value is given as greater than 90%.

Consider `CC(C)(C)c1ccc(NC(=O)c2cc(Cl)ccc2O)cc1` [(72)], for which the “Inhibition Ratio (PAI-1)” value stood at 71.4%. As to `CCCCCCc1ccc(NC(=O)c2cc(Cl)ccc2O)cc1` [(73)], the “Inhibition Ratio (PAI-1)” value is given as greater than 90%. On the same count and under the same terms, the figure for `O=C(Nc1ccc(C2CCCCC2)cc1)c1cc(Cl)ccc1O` [(74)] is 87.3%; for `O=C(Nc1ccccc1Cl)c1cc(Cl)ccc1O` [(77)] it is 74.3%; for `CCCCc1ccc(NC(=O)c2cc(Cl)ccc2O)cc1` [(78)] it is 80.6%. On the same count and under the same terms, the figure for `CC(C)c1cccc(NC(=O)c2cc(Cl)ccc2O)c1` [(81)] is 40.0%.

Values taken from US20090239868A1 (priority 2007, published 2009).
